“Also recorded” adds a separate entry of the source.
Test system: subjects with chronic obstructive pulmonary disease and a low peak inspiratory flow rate
Assay: 28-day randomized, double-blind, double-dummy, parallel-group clinical study: once-daily revefenacin by nebulizer vs once-daily tiotropium by dry powder inhaler, lung function
Type: in vivo, human
Settings: for Trough FEV1, LS Mean (SE) / Trough FVC, LS Mean (SE) / Trough IC, LS Mean (SE): change from baseline after 28 once-daily doses, TIO 18 μg dry powder inhaler, REV 175 μg nebulizer; for Trough FEV1, LS Difference (SE), REV vs TIO / Trough FVC, LS Difference (SE), REV vs TIO / Trough IC, LS Difference (SE), REV vs TIO: REV 175 μg nebulizer vs TIO 18 μg dry powder inhaler
Description: A 28-day, randomized, double-blind, double-dummy, parallel-group study was conducted to compare once-daily revefenacin (175 μg of revefenacin in 3 mL of an isotonic, sterile aqueous solution containing sodium chloride, citric acid, sodium citrate, and water for injection at pH 5.0) delivered using a nebulizer (Trek S jet nebulizer (PARI, Midlothian, Va., USA) with once-daily tiotropium (18 μg/day) delivered using a dry powder inhaler (Spiriva HandiHaler, Boebringer Ingelheim Pharmaceuticals, Inc., Ridgefield, Conn., USA) on lung function in subjects with chronic obstructive pulmonary disease and a low peak inspiratory flow rate. Subjects with moderate to very severe COPD were allowed to use concurrent respiratory therapy with the exception of other inhaled anticholinergics. The primary endpoint of the study was the change from baseline in trough forced expiratory volume in one second (FEV1) after the 28th dose. Secondary endpoints included the change from baseline in peak FEV1, trough forced vital capacity (FVC), peak FVC and trough inspiratory capacity (IC) as well as the safety and tolerability of revefenacin 175 μg. Inclusion criteria were: age≥40 years; a smoking history≥10 pack years; a diagnosis of COPD (post-bronchodilator FEV1≤80% predicted and FEV/FVC≤70%); peak inspiratory flow rate (PIFR)<60 L/min as measured by IN-CHECK® DIAL device with resistance set to DISKUS® at screening.
In this study, revefenacin (REV) (administered using a nebulizer) or tiotropium (TIC)) (administered using a dry powder inhaler) was dosed once-daily for 28 days, Peak inspiratory flow rates (best of three) were determined at screening, randomization and end of study using the IN-CHECK® DIAL device with the resistance set to a resistance equal or similar to the resistance associated with the DISKUS® device. FEV1, FVC and IC were measured at baseline and/or peak on day 1 and on day 29. Safety was assessed via the collection of adverse events.

[1] = % predicted FEV1 <50% subpopulation, PIFR <60 L/min
[2] = ITT population, all subjects PIFR <60 L/min
[3] = ITT population, all subjects low PIFR, listed as revefenacin
[4] = subjects with low PIFR (<60 L/min) and percent predicted FEV1 <50%, listed as revefenacin

C[N+]1(C)[C@@H]2C[C@@H](OC(=O)C(O)(c3cccs3)c3cccs3)C[C@H]1[C@@H]1O[C@@H]12 [TIO, tiotropium, reference compound]
Trough FEV1, LS Mean (SE) [1]: 27.5 (19.53) | Trough FVC, LS Mean (SE) [1]: 46.7 (43.56) | Trough IC, LS Mean (SE) [1]: 76.0 (40.40) | Trough FEV1, LS Mean (SE) [2]: 47.3 (19.06) | Trough FVC, LS Mean (SE) [2]: 55.8 (36.62) | Trough IC, LS Mean (SE) [2]: 84.1 (40.02)

CN(CCN1CCC(OC(=O)Nc2ccccc2-c2ccccc2)CC1)C(=O)c1ccc(CN2CCC(C(N)=O)CC2)cc1 [REV, 1-(2-{4-[(4-carbamoylpiperidin-1-yl)methyl]-N-methylbenzamido}ethyl) piperidin-4-yl N-([1,1′-biphenyl]-2-yl)carbamate]
Trough FEV1, LS Difference (SE), REV vs TIO [1]: 47.3 (21.76) | Trough FVC, LS Difference (SE), REV vs TIO [1]: 99.9 (48.75) | Trough IC, LS Difference (SE), REV vs TIO [1]: 13.7 (45.43) | Trough FEV1, LS Mean (SE) [1]: 74.8 (20.85) | Trough FVC, LS Mean (SE) [1]: 146.5 (46.69) | Trough IC, LS Mean (SE) [1]: 89.7 (42.85) | Trough IC, revefenacin by nebulizer compared to tiotropium by dry powder inhaler (in words) (ITT population or subpopulation with low PIFR and percent predicted FEV1 <50%, listed as revefenacin): No differences in trough IC were noted; also recorded: statistically significant difference in trough IC was not observed | Trough FEV1, LS Difference (SE), REV vs TIO (ITT population, PIFR <60 L/min): 15.7 (22.35) | Trough FVC, LS Difference (SE), REV vs TIO (ITT population, PIFR <60 L/min): 69.6 (42.90) | Trough IC, LS Difference (SE), REV vs TIO (ITT population, PIFR <60 L/min): −12.7 (47.38) | Trough FEV1, LS Mean (SE) [2]: 63.0 (20.17) | Trough FVC, LS Mean (SE) [2]: 125.4 (38.75) | Trough IC, LS Mean (SE) [2]: 71.4 (42.33) | Trough FEV1, revefenacin by nebulizer compared to tiotropium by dry powder inhaler (in words) [3]: did not meet statistical significance nor clinical relevance; also recorded: statistically significant difference in trough FEV1 was not observed | Trough FVC, revefenacin by nebulizer compared to tiotropium by dry powder inhaler (in words) [3]: did not meet statistical significance nor clinical relevance; also recorded: statistically significant difference in trough FVC was not observed | Trough FEV1, revefenacin by nebulizer compared to tiotropium by dry powder inhaler (in words) [4]: statistically significant and clinically relevant greater improvements; also recorded: statistically significant difference in trough FEV1 was observed | Trough FVC, revefenacin by nebulizer compared to tiotropium by dry powder inhaler (in words) [4]: statistically significant and clinically relevant greater improvements; also recorded: statistically significant difference in trough FVC was observed

— patent US20230255952A1, “METHODS FOR TREATING CHRONIC OBSTRUCTIVE PULMONARY DISEASE” (THERAVANCE BIOPHARMA R&D IP, LLC, priority 2018, published 2023)
